Experimental data as given in patent US10053443B2, “2-phenylbenzofuran derivatives, method for preparing the same and use of the same for treating inflammatory disease” (KOREA RESEARCH INSTITUTE OF BIOSCIENCE AND BIOTECHNOLOGY, priority 2014, dated 2018).
pIC50: −log10 of the molar value.

Legend:
interleukin 5 = experiment: Interleukin 5 in bronchoalveolar lavage fluid of asthma mice (ELISA); type: in vivo, mouse; settings: OVA asthma Balb/c mice, 5 or 15 mg/kg PO, FIG. 2
Experimental: (§1) 6 week old Balb/c female mice in the average weight of 20 g were adapted for 1 week. 2 mg of aluminum hydroxide (A8222, Sigma, St. Louis, Mo.) and 20 μg of ovalbumin (A5503, sigma, St. Louis, Mo.) were suspended in phosphate buffer (pH 7.4). Each mouse was administered with 200 μl of the phosphate buffer suspension via intraperitoneal injection for sensitization at 2 weeks intervals. The mouse was forced to inhale 1% ovalbumin (OVA) through ultrasonic atomizer for 30 minutes a day for 3 days after the first intraperitoneal injection of ovalbumin. 24 hours after the antigen administration, airway hyperreactivity was measured. 48 hours later, a lethal dose of pentobarbital (Entobar, Hanlim Pharma. Co., Ltd.) was administered to the mouse. The bronchus was opened and the alveoli were washed with 1.4 ml of saline. Then, the test samples were obtained. The normal control (NC) was not administered with ovalbumin nor inhaled. The asthma induced group (OVA) was administered with ovalbumin and inhaled to induce bronchial asthma. […]
(§2) After performing the experiment of Experimental Example <3-1> above, Th2 cytokine (interleukin 5, 13) in bronchoalveolar was measured by sandwich type enzyme immunoassay. […] The content of each cytokine was measured using the kit according to the manufacturer's instruction.

lung tissue sections = experiment: Histopathological analysis of lung (H&E, PAS) in asthma mice; type: in vivo, mouse; settings: OVA asthma Balb/c mice, 5 or 15 mg/kg PO
Experimental: as §1
To evaluate the level of mucus production by investigating the increase of the number of goblet cells, the mucus secretion cells, the lung was extracted from the mouse without bronchoalveolar lavage. […] The proliferation of goblet cells was evaluated by measuring the ratio of the goblet cells selected by the staining above in bronchial epithelial cells.

[1] = system: bronchial asthma induced animal model; experiment: Airway hyperreactivity (Penh) in ovalbumin-induced bronchial asthma mice; type: in vivo, mouse; settings: OVA asthma Balb/c mice, 5 or 15 mg/kg PO, FIG. 1
Experimental: as §1, with “inhaled.” for “inhaled. The asthma induced group (OVA) was administered with ovalbumin and inhaled to induce bronchial asthma.”
After performing the experiment of Experimental Example <3-1> above, airway resistance was measured by using one chamber plethysmography (All Medicus, Seoul) to obtain Penh (enhanced pause) values which were the mathematically calculated numbers reflecting airway obstruction in order to measure airway hyperreactivity. To measure Penh value, basal value in normal breathing status was first measured. […]

[2] = system: Tumor Necrosis Factor Alpha (TNF-alpha); experiment: Inhibition of TNF-alpha generation in LPS-treated Raw 264.7 cells (ELISA); type: cell-based; settings: Mus musculus, RAW264.7; Raw 264.7, LPS treated; read-out: Grades of IC50 on TNF-alpha generation
Experimental: Raw 264.7 cells were distributed by the same manner as described in Experimental Example <2-1>, which were treated with the samples selected due to their high NO and IL-6 suppressing effect at different concentrations. TNF-alpha included in the supernatant was measured by enzyme-linked immunosorbent assay (TNF-alpha ELISA kit, R&D Systems, MN, USA).
Particularly, 100-fold diluted supernatant was distributed in a 96-well plate on which TNF-alpha antibody was attached, followed by adhesion for 2 hours. The supernatant remaining after the adhesion was washed with a washing buffer. The detection antibody and HRP were adhered on the washed plate for 1 hour. The remaining antibody was washed. Color development was induced by using TMB substrate. The reaction was terminated with sulfuric acid solution. Then, OD450 was measured. TNF-alpha in the supernatant was quantified by using the standard curve made with the standard TNF-alpha included in the kit. TNF-alpha suppression rate was calculated by measuring the same concentration that could inhibit TNF-alpha generation up to 50% in the LPS treated group and the results are shown in Table 9.

interleukin 13 = experiment: Interleukin 13 in bronchoalveolar lavage fluid of asthma mice (ELISA); type: in vivo, mouse; settings: OVA asthma Balb/c mice, 5 or 15 mg/kg PO, FIG. 3
Experimental: as §1, §2

[3] = system: Nitrogen Oxide (NO) generation; experiment: Inhibition of nitrogen oxide (NO) generation in LPS-treated Raw 264.7 cells (Griess); type: cell-based, mouse; settings: Raw 264.7, LPS 500 ng/ml, 24 hours
Experimental: Raw 264.7 (ATCC TIB71) cells were inoculated in a 96-well plate containing the same medium as used in Experimental Example 1 at the density of 1×10^5 cells/well. The cells were cultured in 5% CO2 at 37° C. for 4 hours to attach the cells onto the plate. The cells were treated with each sample at different concentrations, followed by further culture for 1 hour. […] were treated thereto at the final concentration of 500 ng/ml, followed by further culture for 24 hours. 100 μl of the supernatant was taken and transferred in a new plate, which was mixed with Griess reagent (a mixture of 1% sulfanilamide, 0.1% N-[1-naphthyl]-ethylenediamine dihydrochloride, and 5% phosphoric acid), followed by reaction for 10 minutes. Then, OD540 was measured. NO generation was quantified by using the sodium nitrite standard curve prepared from […] dissolved in the same medium at different concentrations. Considering the NO generation of the inflammation induced macrophages as 100%, the NO generation inhibition rate was calculated and presented in Table 7.

serum IgE = experiment: Level of serum IgE in asthma mice; type: in vivo, mouse; settings: OVA asthma Balb/c mice, 5 or 15 mg/kg PO, FIG. 4
Experimental: as §1, with “asthma. The comparative control was orally administered with dexamethasone (2 mg/kg, PO) one hour before the inhalation (DEX).” for “asthma.”
After performing the experiment of Experimental Example <3-1> above, the level of serum IgE relating to the severity of asthma was measured by enzyme immunoassay. […] Then, OD650 was measured.

`COc1cc(CCCO)cc2cc(-c3ccc(C)cc3)oc12` [Example 4, 3-(7-methoxy-2-p-tolylbenzofuran-5-yl)propane-1-ol] was tested, and the “content of interleukin 5 in bronchoalveolar lavage fluid” value (interleukin 5) was “significantly reduced”, the “accumulation of inflammatory cells around bronchiole (H&E)” value (lung tissue sections; FIG. 6) was “significantly reduced” and the “proliferation of goblet cells (PAS, mucus production)” value (lung tissue sections; FIG. 7) was “significantly reduced”. For the same molecule, the “Penh value (airway hyperreactivity)” value [1] was “significantly reduced”, the pIC50 [2] was 5.52 to 6.00 and the “content of interleukin 13 in bronchoalveolar lavage fluid” value (interleukin 13) was “significantly reduced”. For the same molecule, the “Grades of NO generation inhibition rate (%)” value [3] was “B (B: 25<B≤35)” and the “generation of serum IgE induced by OVA” value (serum IgE) was “efficiently reduced”.
